Consider 2 compounds from patent US20260209228A1 (Elanco Tiergesundheit AG, priority 2018, published 2026).

Assay [1] deals with D. immitis microfilariae. Kind of assay: Dog heart worm microfilariae motility inhibition (Example A). The note with it: read-out: EC50 (motility inhibition). The format is cell-based.
The test system of assay [2] is L. sigmodontis. Kind of assay: L.s. model (Example E). The note with it: mice infected s.c. with L. sigmodontis larvae; oral gavage, dose between 1×3 mg/kg and 5×32 mg/kg; necropsy 5 weeks after infection.
Protocol: Mice, injected subcutaneously with infective L. sigmodontis larvae, were subsequently treated with the test article formulated in eg DMSO/PEG 2/1, by oral gavage at a dose in a range between 1×3 mg/kg up to 5×32 mg/kg (one dose per day for 5 consecutive days). At necropsy 5 weeks after infection, efficacy is calculated by counting developed larvae vs. untreated animals using Abbot's formula.
The test system of assay [3] is H. contortus (H.c.) larvae. Kind of assay: Ruminant gastrointestinal H. contortus larvae motility inhibition (Example B). The note with it: Haemonchus contortus, read-out: EC50 (motility inhibition).
Protocol: H.c. eggs isolated from lamb fecal matter are allowed to hatch overnight. Test compounds are diluted in DMSO and added to a 96-well plate containing appropriate media. H.c. larvae are added to each well and plates are incubated for the desired time(s). Motility is assessed using an LCD camera imaging system. Percent motility inhibition values are generated relative to the average of the DMSO-only wells.
For assay [4], the system named is H. contortus. Kind of assay: Gastro intestinal nematodes jird model, H. contortus only (Example C). The note with it: jirds; H. contortus from stomach; oral, Day 6 after infection, dose between 1×3 mg/kg and 1×32 mg/kg; necropsy three days after treatment.
Protocol: Jirds (Meriones unguiculatus), are artificially infected by gavage with third instar larvae each of T. colubriformis and H. contortus. Then treated orally with the test compound formulated in eg DMSO/PEG 2/1, on Day 6 after infection at a dose in a range between 1×3 mg/kg up to 1×32 mg/kg. Three days after treatment, gerbils are euthanized and dissected to recover H. contortus from stomach and T. colubriformis from the small intestine. Efficacy is expressed as a % reduction in worm numbers in comparison with a placebo treated group, using the Abbot's formula.

The structures appear in SMILES notation. Some results are limits rather than exact numbers.

Take `CN(C)c1c(C(=O)N[C@H]2CCOc3ccccc32)cnc2c(-n3ccc4cc(Cl)ccc43)nccc12` [Example 1.8]: the EC50 is less than 0.1 µg/mL in assay [1] and less than 1 µg/mL in assay [3]. Also, the “efficacy (developed larvae vs. untreated animals, Abbot's formula)” value in assay [2] was more than 70%.

`CN(C)c1c(C(=O)N[C@H]2CCOc3ccccc32)cnc2c(-c3cc(F)cc(F)c3F)nccc12` [Example 1.50, N-[(4S)-chroman-4-yl]-4-(dimethylamino)-8-(2,3,5-trifluorophenyl)-1,7-naphthyridine-3-carboxamide]: the EC50 in assay [1] is less than 0.1 µg/mL; in assay [3], less than 1 µg/mL. Moreover, the “efficacy against He (% reduction in worm numbers vs placebo treated group, Abbot's formula)” value in assay [4] was more than 90%.

As usually defined, the EC50 is the concentration needed to bring the measured effect to its halfway point.
